Consider 32 molecules from ChEMBL document CHEMBL4311991, “Design, synthesis, and biological evaluation of 1-substituted -2-aryl imidazoles targeting tubulin polymerization as potential anticancer agents” (Eur J Med Chem, 2019).

Test [1] has as its system MDA-MB-468. The test can be described thus: Antiproliferative activity against human MDA-MB-468 cells assessed as reduction in cell viability after 72 hrs by MTT assay. The format is functional, cell-based. The following applies: MDA-MB-468, 72 h. (Tetrazolium dyes change colour on reduction, which living cells bring about.)
Test [2] concerns MDA-MB-231. The experiment in a line: Antiproliferative activity against human MDA-MB-231 cells assessed as reduction in cell viability after 72 hrs by MTT assay. The format is functional, cell-based. The following applies: MDA-MB-231, 72 h.
Test [3] has as its system T47D. The experiment in a line: Antiproliferative activity against human T47D cells assessed as reduction in cell viability after 72 hrs by MTT assay. The format is functional, cell-based.
Test [4] relates to HCT-15. The experiment in a line: Antiproliferative activity against human HCT15 cells assessed as reduction in cell viability after 72 hrs by MTT assay. The format is functional, cell-based. The following applies: HCT-15, 72 h.
Test [5] concerns HT-29. The experiment in a line: Antiproliferative activity against human HT-29 cells assessed as reduction in cell viability after 72 hrs by MTT assay. The format is functional, cell-based. The following applies: HT-29, 72 h.
Test [6] deals with HeLa. The test can be described thus: Antiproliferative activity against human HeLa cells assessed as reduction in cell viability after 72 hrs by MTT assay. In kind it is functional, cell-based.
Test [7] relates to HUVEC. The experiment in a line: Cytotoxicity against HUVEC assessed as reduction in cell viability after 72 hrs by MTT assay. In kind it is cell-based. The following applies: Homo sapiens.

Take `COc1cc(-c2nccn2C)cc(OC)c1OC`: the 50% inhibitory concentration (IC50) in test [1], in test [2], in test [3], in test [4], in test [5] and in test [6] was greater than 100 µM each time.
`COc1cc(-c2nccn2S(=O)(=O)c2ccccc2)cc(OC)c1OC`: the IC50 in test [1], in test [2], in test [3], in test [4], in test [5] and in test [6] was greater than 100 µM each time.
As for `COc1cc(-c2nccn2C(C)C)cc(OC)c1OC`, the half-maximal inhibitory concentration (IC50) in test [1], in test [2], in test [3], in test [4], in test [5] and in test [6] was greater than 100 µM throughout.
On to `COc1ccc(NC(=O)c2cc(OC)c(OC)c(OC)c2)cc1N`, for which the IC50 – broadly, the midpoint of a concentration-inhibition curve – in test [1] stood at 2 µM; in test [2] it was 18.6 µM; in test [3], 50.4 µM; in test [4] it was 6.5 µM; in test [5], 1.2 µM; in test [6], 4.1 µM.
For `COc1cc(-c2nccn2S(=O)(=O)c2ccc(C)cc2)cc(OC)c1OC`, the IC50 in test [1], in test [2], in test [3], in test [4], in test [5] and in test [6] was greater than 100 µM each time.
For the molecule `COc1ccc(C(=O)Nc2cc(OC)c(OC)c(OC)c2)cc1[N+](=O)[O-]`, the IC50 in test [1] came out at 3 µM; in test [2], 5.7 µM; in test [3], 6 µM; in test [4], 2 µM; in test [5], 8.3 µM; in test [6], 3.7 µM.
Take `CCCCCn1ccnc1-c1cc(OC)c(OC)c(OC)c1`: the IC50 in test [1] is 57.9 µM; in test [2], 34.2 µM; in test [3] it was 64.4 µM; in test [4] it was greater than 100 µM; in test [5], 60.1 µM; in test [6] it was greater than 100 µM.
Regarding `COc1cc(-c2nccn2-c2ccc(Br)cc2)cc(OC)c1OC`, the concentration for half-maximal inhibition (IC50) in test [1] amounted to 2.7 µM; in test [2], 8.4 µM; in test [3], 24.6 µM; in test [4], 11.7 µM; in test [5], 7.7 µM; in test [6], 3.3 µM. Besides, the IC50 in test [7] was greater than 100 µM.
For the molecule `COc1cc(-c2nccn2-c2ccc(C)cc2)cc(OC)c1OC`, the half-inhibitory concentration (IC50) came out at 0.4 µM in test [1]; 4.1 µM in test [2]; 20.5 µM in test [3]; 0.8 µM in test [4]; 1.6 µM in test [5]; 0.7 µM in test [6]. In test [7], the half-maximal inhibitory concentration (IC50) was greater than 100 µM.
Turning to `COc1cc(OC)cc(-n2ccnc2-c2cc(OC)c(OC)c(OC)c2)c1`, the half-inhibitory concentration (IC50) in test [1] is 57.5 µM; in test [2], 45.2 µM; in test [3], greater than 100 µM; in test [4] it was greater than 100 µM; in test [5], 74.5 µM; in test [6] it was 41.4 µM.
As to `COc1cc(-c2nccn2-c2cccc3ccccc23)cc(OC)c1OC`, the IC50 in test [1] was 6.2 µM; in test [2] it was 8 µM; in test [3] it was 15 µM; in test [4] it was 25.4 µM; in test [5] it was 14.7 µM; in test [6] it was 31 µM.
For the molecule `COc1ccc(C(=O)Nc2cc(OC)c(OC)c(OC)c2)cc1N`, the IC50 in test [1] is greater than 100 µM; in test [2], 94.2 µM; in test [3] it was greater than 100 µM; in test [4], greater than 100 µM; in test [5], greater than 100 µM; in test [6], greater than 100 µM.
Turning to `CCn1ccnc1-c1cc(OC)c(OC)c(OC)c1`, the half-inhibitory concentration (IC50) in test [1], in test [2], in test [3], in test [4], in test [5] and in test [6] was greater than 100 µM throughout.
As to `COc1cc(-c2nccn2-c2ccc(F)cc2)cc(OC)c1OC`, the IC50 is 62.2 µM in test [1]; 38.4 µM in test [2]; greater than 100 µM in test [3]; 68.6 µM in test [4]; 29.3 µM in test [5]; 17.5 µM in test [6].
Regarding `COc1ccc(C(=O)Oc2cc(OC)c(OC)c(OC)c2)cc1[N+](=O)[O-]`, the 50% inhibitory concentration (IC50) in test [1] was 35.2 µM; in test [2] it was greater than 100 µM; in test [3] it was 29.6 µM; in test [4], greater than 100 µM; in test [5] it was greater than 100 µM; in test [6], greater than 100 µM.
Consider `CCCCn1ccnc1-c1cc(OC)c(OC)c(OC)c1`, for which the half-maximal inhibitory concentration (IC50) in test [1] is 44.1 µM; in test [2], 70.4 µM; in test [3], greater than 100 µM; in test [4] it was greater than 100 µM; in test [5], greater than 100 µM; in test [6], greater than 100 µM.
Take `COc1cc(-c2nccn2-c2ccc3sccc3c2)cc(OC)c1OC`: the IC50 in test [1] was determined as 0.4 µM; in test [2] it was 16.8 µM; in test [3] it was 17 µM; in test [4], 3.3 µM; in test [5] it was 1.5 µM; in test [6], 1.4 µM.
On to `COc1ccc(OC(=O)c2cc(OC)c(OC)c(OC)c2)cc1N`, for which the IC50 in test [1], in test [2], in test [3], in test [4], in test [5] and in test [6] was greater than 100 µM throughout.
For the molecule `COc1cccc(-n2ccnc2-c2cc(OC)c(OC)c(OC)c2)c1`, the IC50 in test [1] stood at 10.4 µM; in test [2], 18.3 µM; in test [3] it was 32.2 µM; in test [4], 17.1 µM; in test [5], 18.9 µM; in test [6] it was 11 µM.
Take `COc1cc(-c2nccn2Cc2ccccc2)cc(OC)c1OC`: the IC50 in test [1], in test [2], in test [3], in test [4], in test [5] and in test [6] was greater than 100 µM in each case.
For the molecule `COc1cc(-c2nccn2-c2cccc(C)c2)cc(OC)c1OC`, the IC50 in test [1] was 22.6 µM; in test [2], 11.7 µM; in test [3], 29.3 µM; in test [4] it was 1.6 µM; in test [5], 14.6 µM; in test [6], 1.9 µM. Besides, the IC50 in test [7] is greater than 100 µM.
Consider `COc1ccc(OC(=O)c2cc(OC)c(OC)c(OC)c2)cc1[N+](=O)[O-]`, for which the IC50 in test [1], in test [2], in test [3], in test [4], in test [5] and in test [6] was greater than 100 µM in each case.
For the molecule `CCCn1ccnc1-c1cc(OC)c(OC)c(OC)c1`, the 50% inhibitory concentration (IC50) in test [1], in test [2], in test [3], in test [4], in test [5] and in test [6] was greater than 100 µM each time.
On to `COc1cc(-c2nccn2-c2ccc3[nH]ccc3c2)cc(OC)c1OC`, for which the IC50 in test [1] worked out at 2.3 µM; in test [2], 4.3 µM; in test [3] it was 2.1 µM; in test [4] it was 4.6 µM; in test [5], 9.1 µM; in test [6] it was 4.4 µM. Moreover, the half-inhibitory concentration (IC50) in test [7] is 46.7 µM.
For `COc1ccc(NC(=O)c2cc(OC)c(OC)c(OC)c2)cc1[N+](=O)[O-]`, the IC50 in test [1] is 2.9 µM; in test [2], 31 µM; in test [3], 34.5 µM; in test [4] it was 17.6 µM; in test [5], 9.7 µM; in test [6] it was 38.7 µM.
As for `COc1cc(-c2nccn2-c2ccc3cc[nH]c3c2)cc(OC)c1OC`, the IC50 was 1.7 µM in test [1]; 7.5 µM in test [2]; 18 µM in test [3]; 4 µM in test [4]; 3.6 µM in test [5]; 4.8 µM in test [6]. The 50% inhibitory concentration (IC50) in test [7] amounted to 40 µM.
In the case of `COc1ccc(C(=O)Oc2cc(OC)c(OC)c(OC)c2)cc1N`, the half-maximal inhibitory concentration (IC50) in test [1], in test [2], in test [3], in test [4], in test [5] and in test [6] was greater than 100 µM in each case.
For `COc1ccc(-n2ccnc2-c2cc(OC)c(OC)c(OC)c2)cc1`, the IC50 in test [1] was determined as 0.5 µM; in test [2] it was 2.7 µM; in test [3], 1.4 µM; in test [4] it was 1.3 µM; in test [5], 13.1 µM; in test [6], 1.2 µM. The IC50 in test [7] was greater than 50 µM.
Regarding `COc1cc(-c2nccn2CC(C)C)cc(OC)c1OC`, the half-inhibitory concentration (IC50) in test [1], in test [2], in test [3], in test [4], in test [5] and in test [6] was greater than 100 µM each time.
For the molecule `COc1cc(-c2nccn2-c2cccc([N+](=O)[O-])c2)cc(OC)c1OC`, the IC50 in test [1] is 7.2 µM; in test [2], greater than 100 µM; in test [3], 17.9 µM; in test [4] it was greater than 100 µM; in test [5], greater than 100 µM; in test [6] it was 6.7 µM. Further, the IC50 in test [7] is greater than 100 µM.
As for `COc1ccc(-n2ccnc2-c2cc(OC)c(OC)c(OC)c2)cc1[N+](=O)[O-]`, the IC50 in test [1] came out at 0.1 µM; in test [2], 7.5 µM; in test [3], 10 µM; in test [4], 1 µM; in test [5], 0.6 µM; in test [6], 2.5 µM.
Turning to `COc1ccc(-n2ccnc2-c2cc(OC)c(OC)c(OC)c2)cc1O`, the IC50 in test [1] was 0.3 µM; in test [2], 1.9 µM; in test [3] it was 53.1 µM; in test [4], 0.2 µM; in test [5], 16.9 µM; in test [6] it was 0.1 µM. Further, the concentration for half-maximal inhibition (IC50) in test [7] is 54.2 µM.
